The NIST ThermoML archive (doi:10.1016/j.fluid.2010.01.020)
Numbers after ± are expanded uncertainties.

Assays:
[1] = Molar enthalpy of transition or fusion; conditions: Crystal; DSC
[2] = Crystal
[3] = xn = mol fraction of the nth substance listed; conditions: 101 kPa, Liquid, Vibrating tube method

CCn1cc[n+](C)c1.Cc1ccc(S(=O)(=O)[O-])cc1 [1-ethyl-3-methylimidazolium 4-methylbenzenesulfonate]
Conditions	Molar enthalpy of transition or fusion [kcal/mol]
[1]	4.9 ± 0.115

[2]
Conditions	Normal melting temperature [°C]
DTA	49.2 ± 0.4
Solid-Liquid Equilibrium	53.5 ± 0.4

CCn1cc[n+](C)c1.N#C[S-] [1-ethyl-3-methylimidazolium thiocyanate] + O
mass density [kg/m3], [3]
Conditions	298.15 K	308.15 K	318.15 K	328.15 K	338.15 K	348.15 K
x1 = 0.0248	1016 ± 0.63	1010.56 ± 0.62	1005.23 ± 0.61	1000.09 ± 0.6	994.12 ± 0.57	987.53 ± 0.56
x1 = 0.0635	1036.86 ± 0.42	1031.47 ± 0.4	1025.75 ± 0.4	1019.71 ± 0.39	1013.39 ± 0.38	1006.75 ± 0.39
x1 = 0.1377	1062.14 ± 0.3	1056.21 ± 0.29	1049.96 ± 0.29	1043.71 ± 0.28	1036.7 ± 0.28	1030.27 ± 0.28
x1 = 0.2145	1077.88 ± 0.21	1071.45 ± 0.21	1064.98 ± 0.2	1058.44 ± 0.2	1051.85 ± 0.2	1045.17 ± 0.2
x1 = 0.3381	1092.51 ± 0.23	1086.08 ± 0.23	1079.64 ± 0.23	1073.2 ± 0.22	1066.76 ± 0.22	1060.28 ± 0.22
x1 = 0.4198	1098.72 ± 0.27	1092.33 ± 0.26	1085.98 ± 0.26	1079.65 ± 0.26	1073.3 ± 0.25	1066.97 ± 0.25
x1 = 0.5599	1105.92 ± 0.4	1099.59 ± 0.4	1093.4 ± 0.39	1087.19 ± 0.39	1081 ± 0.38	1074.85 ± 0.37
x1 = 0.6524	1109.2 ± 0.51	1102.99 ± 0.51	1096.81 ± 0.5	1090.66 ± 0.49	1084.56 ± 0.49	1078.47 ± 0.48
x1 = 0.7369	1111.59 ± 0.63	1105.42 ± 0.62	1099.15 ± 0.61	1093.24 ± 0.61	1087.14 ± 0.6	1081.08 ± 0.59
x1 = 0.8256	1113.68 ± 0.77	1107.51 ± 0.76	1101.41 ± 0.75	1095.36 ± 0.74	1089.34 ± 0.73	1083.37 ± 0.72
x1 = 0.9263	1115.64 ± 0.94	1109.54 ± 0.93	1103.5 ± 0.92	1097.51 ± 0.91	1091.43 ± 0.9	1085.62 ± 0.88
x1 = 1	1116.84 ± 1.1	1110.73 ± 1.1	1104.67 ± 1.1	1098.69 ± 1	1092.73 ± 1	1086.83 ± 1

O [water] + CCn1cc[n+](C)c1.N#C[S-]
[3], x2 = 0
Conditions	mass density [kg/m3]
308.15 K	992.03 ± 0.11
318.15 K	987.02 ± 0.11
328.15 K	981.69 ± 0.11
338.15 K	977.03 ± 0.11
348.15 K	971.75 ± 0.11
